These results are taken from US9656990B2, “Cathepsin cysteine protease inhibitors” (Merck Sharp & Dohme Corp., priority 2014, dated 2017).

The target in the assay is human cathepsin K (UniProt P43236, Y175D/V274L, species not given). The assay can be described thus: Cathepsin K Assay. Type of assay: biochemical. The following applies: IP from dose response curve; Z-Leu-Arg-AMC substrate, pH 5.5; read-out: hrbCat K (IP (nM)).
On to `CC(C#N)NC(=O)[C@@H]1CCC(F)(F)C[C@H]1c1nn(-c2ccc(F)cn2)cc1-c1ccc(N2CCS(=N)(=O)CC2)cc1` (single isomer, unassigned) [Example 22, (1R,2R)-N-((R or S)-1-cyanoethyl)-4,4-difluoro-2-(1-(5-fluoropyridin-2-yl)-4-(4-(1-imino-1-oxidothiomorpholino)phenyl)-1H-pyrazol-3-yl)cyclohexanecarboxamide], for which the IC50 is 264 nM.
On to `CN=S1(=O)CCN(c2ccc(-c3cn(-c4ccc(F)cn4)nc3[C@@H]3CC(F)(F)CC[C@H]3C(=O)NC(C)C#N)cc2)CC1` (single isomer, unassigned) [Example 24, (1R,2R)-N-((R or S)-1-cyanoethyl)-4,4-difIuoro-2-(1-(5-fluoropyridin-2-yl)-4-(4-(1-(methylimino)-1-oxidothiomorpholino)phenyl)-1H-pyrazol-3-yl)cyclohexanecarboxamide], for which the IC50 was determined as 169 nM.
In the case of `CC1(C)CC[C@@H](c2nn(-c3ccc(F)cc3)cc2-c2ccc(N3CCS(=O)(=O)CC3)cc2)[C@H](C(=O)NC2(C#N)CC2)C1` (single isomer, unassigned) [Example 126, (1R,2R) or (1S,2S)-N-(1-cyanocyclopropyl)-2-(4-(4-(1,1-dioxidothiomorpholino)phen-yl)-1-(4-fluorophenyl)-1H-pyrazol-3-yl)-5,5-dimethylcyclohexanecarbox-amide] it was 116 nM; in that of `C[C@@H](C#N)NC(=O)[C@@H]1C[C@@H](F)CC[C@H]1c1nn(-c2ncccc2F)cc1-c1ccc(N2CCS(=O)(=O)CC2)cc1` [Example 12, (1R,2R,5S)—N—((S)-1-Cyanoethyl)-2-(4-(4-(1,1-dioxidothiomorpholino)phenyl)-1-(3-fluoropyridin-2-yl)-1H-pyrazol-3-yl)-5-fluorocyclohexanecarboxamide], 6.89 nM; in that of `N#CC1(NC(=O)[C@@H]2CCC(F)(F)C[C@H]2c2nn(-c3ncccc3F)cc2-c2ccc(N3CCS(=N)(=O)CC3)cc2)CC1` [Example 39, (1R,2R)-N-(1-cyanocyclopropyl)-4,4-difluoro-2-(1-(3-fluoropyridin-2-yl)-4-(4-(1-imino-1-oxidothiomorpholino)phenyl)-1H-pyrazol-3-yl)cyclohexanecarboxamide], 48.7 nM.
Turning to `CN=S1(=O)CCN(c2ccc(-c3cn(-c4ncccc4F)nc3[C@@H]3CC(F)(F)CC[C@H]3C(=O)NC3(C#N)CC3)cc2)CC1` [Example 40, (1R,2R)-N-(1-cyanocyclopropyl)-4,4-difluoro-2-(1-(3-fluoropyridin-2-yl)-4-(4-(1-(methylimino)-1-oxidothiomorpholino)phenyl)-1H-pyrazol-3-yl)cyclohexanecarboxamide], the IC50 came to 22 nM.
Turning to `CC(C)[C@@H](C#N)NC(=O)[C@@H]1C[C@@H](F)CC[C@H]1c1nn(-c2ncccc2F)cc1-c1ccc(N2CCS(=O)(=O)CC2)cc1` [Example 49, (1R,2R,5S)-N-((S)-1-cyano-2-methylpropyl)-2-(4-(4-(1,1-dioxidothiomorpholino)phen-yl)-1-(3-fluoropyridin-2-yl)-1H-pyrazol-3-yl)-5-fluorocyclohexanecarboxamide], the IC50 came out at 8.35 nM.
Take `CN=S1(=O)CCN(c2ccc(-c3cn(-c4ncccc4F)nc3[C@@H]3CC[C@H](F)C[C@H]3C(=O)NC3(C#N)CC3)cc2)CC1` [Example 53, (1R,2R,5S)-N-(1-cyanocyclopropyl)-5-fluoro-2-(1-(3-fluoropyridin-2-yl)-4-(4-(1-(methylimino)-1-oxidothiomorpholino)phenyl)-1H-pyrazol-3-yl)cyclohexanecarboxamide]: the IC50 was 6.54 nM.
Turning to `CN=S1(=O)CCN(c2ccc(-c3cn(-c4ncccc4F)nc3[C@@H]3CC[C@H](F)C[C@H]3C(=O)N[C@@H](C)C#N)cc2)CC1` [Example 54, (1R,2R,5S)-N-((S)-1-cyanoethyl)-5-fluoro-2-(1-(3-fluoropyridin-2-yl)-4-(4-(1-(methylimino)-1-oxidothiomorpholino)phenyl)-1H-pyrazol-3-yl)cyclohexanecarboxamide], the IC50 worked out at 7.89 nM.
As to `CN=S1(=O)CCN(c2ccc(-c3cn(-c4ncccc4F)nc3[C@@H]3CC[C@H](F)C[C@H]3C(=O)N[C@H](C#N)C(C)C)cc2)CC1` [Example 55, (1R,2R,5S)-N-((S)-1-cyano-2-methylpropyl)-5-fluoro-2-(1-(3-fluoropyridin-2-yl)-4-(4-(1-(methylimino)-1-oxidothiomorpholino)phenyl)-1H-pyrazol-3-yl)cyclohexanecarboxamide], the IC50 worked out at 14.3 nM.
On to `N#CC1(NC(=O)[C@@H]2C[C@@H](F)CC[C@H]2c2nn(-c3ncccc3F)cc2-c2ccc(N3CCS(=N)(=O)CC3)cc2)CC1` [Example 56, (1R,2R,5S)-N-(1-cyanocyclopropyl)-5-fluoro-2-(1-(3-fluoropyridin-2-yl)-4-(4-(1-imino-1-oxidothiomorpholino)phenyl)-1H-pyrazol-3-yl)cyclohexanecarboxamide], for which the IC50 was 5.69 nM.
With `CC(C)[C@@H](C#N)NC(=O)[C@@H]1C[C@@H](F)CC[C@H]1c1nn(-c2ncccc2F)cc1-c1ccc(N2CCS(=N)(=O)CC2)cc1` [Example 58, (1R,2R,5S)-N-((S)-1-cyano-2-methylpropyl)-5-fluoro-2-(1-(3-fluoropyridin-2-yl)-4-(4-(1-imino-1-oxidothiomorpholino)phenyl)-1H-pyrazol-3-yl)cyclohexanecarboxamide], the IC50 worked out at 16 nM.
In the case of `N#CC1(NC(=O)[C@@H]2CCC(F)(F)C[C@H]2c2nn(-c3ccc(C(F)(F)F)cn3)cc2-c2ccc(N3CCS(=O)(=O)CC3)cc2)CC1` [Example 149, (1R,2R)-N-(1-cyanocyclopropyl)-2-(4-(4-(1,1-dioxidothiomorpholino)phen-yl)-1-(5-(trifluoromethyl)pyridin-2-yl)-1H-pyrazol-3-yl)-4,4-difluorocyclohexanecarbox-amide], the IC50 came to 2.58 nM.
In the case of `N#CC1(NC(=O)[C@@H]2CCC(F)(F)C[C@H]2c2nn(-c3ccc(Cl)cn3)cc2-c2ccc(N3CCS(=O)(=O)CC3)cc2)CC1` [Example 150, (1R,2R)-2-(1-(5-chloropyridin-2-yl)-4-(4-(1,1-dioxidothiomorpholino)phen-yl)-1H-pyrazol-3-yl)-N-(1-cyanocyclopropyl)-4,4-difluorocyclohexanecarbox-amide] it was 1.43 nM; in that of `N#CC1(NC(=O)[C@@H]2CCC(F)(F)C[C@H]2c2nn(-c3ccc(F)cn3)cc2-c2ccc(N3CCS(=O)(=O)CC3)cc2)CC1` [Example 151, (1R,2R)-N-(1-cyanocyclopropyl)-2-(4-(4-(1,1-dioxidothiomorpholino)phen-yl)-1-(5-fluoropyridin-2-yl)-1H-pyrazol-3-yl)-4,4-difluorocyclohexanecarbox-amide], 2.44 nM; in that of `N#CC1(NC(=O)[C@@H]2CCCC[C@H]2c2nn(-c3ncccn3)cc2-c2ccc(N3CCS(=O)(=O)CC3)cc2)CC1` [Example 160, (1R,2R)-N-(1-cyanocyclopropyl)-2-(4-(4-(1,1-dioxidothiomorpholino)phen-yl)-1-(pyrimidin-2-yl)-1H-pyrazol-3-yl)cyclohexanecarboxamide], 34.7 nM.
